{"source": "paper PMC9606102", "about": "“[^89Zr]Zr-PSMA-617 PET/CT in biochemical recurrence of prostate cancer: first clinical experience from a pilot study including biodistribution and dose estimates” (European Journal of Nuclear Medicine and Molecular Imaging, 2022)", "type_in_all_cases": "in vivo, human (patients)", "key": {"[1]": {"test": "[^89Zr]Zr-PSMA-617 PET/CT biodistribution in normal organs (SUV, tissue-to-background ratio)", "settings": "for SUVmax: mean ± SD", "description": "(§1) Each patient underwent PET/CT imaging scans at 4 time points: 1 h, 24 h, 48 h, and 72 h post intravenous injection (p.i.) of 111 ± 11 MBq (mean ± standard deviation, range 97–129 MBq) [^89Zr]Zr-PSMA-617. All PET/CT imaging was performed on a Biograph mCT 40 scanner (Siemens Medical Solutions, Knoxville, TN, USA) comprising whole-body PET/CT scans extending from vertex to mid-femur in 3D mode. PET acquisition time duration was 4 min per bed position on the initial day of injection and extended up to 10 min on the last day. CT data were acquired in low-dose technique using an X-ray tube voltage of […] and a modulation of the tube current (CARE Dose4D, Siemens Erlangen; maximal tube current 30 mA) followed by reconstruction with a soft tissue reconstruction kernel (B31f) to a slice thickness of 5 mm (increment 2–4 mm). PET emission data was corrected for decay, randoms, and scatter. PET image reconstruction was performed applying an iterative 3-dimensional ordered-subset expectation maximization (OSEM) algorithm (3 iterations; 24 subsets) with gaussian filtering to a transaxial resolution of 5 mm at full width half maximum (FWHM). The matrix and the pixel size were 200 × 200 and 3.0 mm, respectively. Attenuation correction was performed using the low-dose CT data.\nThe biodistribution of [^89Zr]Zr-PSMA-617 was quantified by analyzing the standard uptake values (SUV) SUVmax, SUVpeak and SUVmean at 1 h, 24 h, 48 h, and 72 h p.i.. Considering normal-organs, elliptical volumes of interest (VOI) were manually drawn enclosing regions of relatively homogenous uptake. Activity estimation was performed within the VOI applying a 40% or, in case of faintly accumulating organs, a 20% threshold using the SyngoVia software (Enterprise VB 60, Siemens, Erlangen, Germany). The following organs were included in this evaluation: the brain, salivary, and lacrimal glands, nasal mucosa, lung, liver, spleen, small and large intestine, and the kidneys. With regard to the large intestine, SUV was determined at the descending colon. Blood pool and background were evaluated in the descending aorta and the gluteal muscle, respectively. Tissue-to-background ratios (TiBR) were calculated by dividing the SUVmax of the organs by the SUVmean of the background (gluteal muscle)."}, "prostate cancer lesions": {"tested_on": "prostate cancer lesions", "test": "[^89Zr]Zr-PSMA-617 PET/CT tumor lesion detection and uptake in biochemical recurrence", "description": "Three patients had undetermined findings on [^68Ga]Ga-PSMA-11 PET/CT with no definite assignment to pathological or physiological uptake, e.g., faintly accumulating or unusually located tracer uptake. The time interval between both, [^89Zr]Zr-PSMA-617 and [^68Ga]Ga-PSMA-11 PET/CT, was 31 ± 18 days (range 5–49 days), with no treatment performed in between. Prostate-specific antigen (PSA) serum level at time of imaging ranged from 0.43 to 1.92 ng/ml. All patients were initially treated with radical prostatectomy (RP). Initial Gleason score ranged from 7a to 9. Four patients underwent salvage treatments such as androgen-deprivation therapy (ADT), lymphadenectomy (LA) or radiation therapy (RT). Detailed patient characteristics including age, Gleason score, primary therapy, salvage therapies, time from initial diagnosis (ID) of prostate cancer, PSA and PSA doubling time (DT) are presented in Table 1. [^89Zr]Zr-PSMA-617 PET/CT imaging was performed on a compassionate use basis under the German Pharmaceutical Act §13 (2b). The medical indication for the examination and the labeling of the tracer were under the direct responsibility of the applying physician. Patients gave their written consent after being thoroughly informed about the general risks of both radiation exposure and application of a novel PET tracer including possible adverse effects of, e.g., therapeutic PSMA tracers. Furthermore, all patients agreed to the publication of the resulting data in accordance with the Declaration of Helsinki.\nas §1\nThree physicians with long-time experience in PSMA-targeted PET/CT (S.E., F.K., and F.R.) visually identified suspicious lesions taking into account all four imaging time points (1 h, 24 h, 48 h, and 72 h p.i.)."}, "[2]": {"test": "Adverse event recording after [^89Zr]Zr-PSMA-617 PET/CT", "settings": "7 patients, 111 ± 11 MBq i.v., during examination and 4 weeks follow-up", "description": "Any adverse event was recorded during and after examination. Vital parameters as heart rate, blood pressure, body temperature, and oxygen saturation were closely monitored. Within a time interval of 4 weeks after [^89Zr]Zr-PSMA-617 PET/CT, patients were additionally interviewed about potential side effects."}, "[3]": {"settings": "of the 11 lesions not visible at 1 h p.i."}}, "note": "Entries after “also recorded” stand apart in the source; their conditions may differ.", "data": [{"smiles": "O=C([O-])CN1CCN(CC(=O)[O-])CCN(CC(=O)NCC2CCC(C(=O)NC(Cc3ccc4ccccc4c3)C(=O)NCCCCC(NC(=O)NC(CCC(=O)O)C(=O)O)C(=O)O)CC2)CCN(CC(=O)[O-])CC1.[89Zr+4]", "note": "(stereo not drawn) [[^89Zr]Zr-PSMA-617]", "values": [{"measurement": "SUVmax", "setting": "[1]; colon, 1 h p.i.", "result": "3.50 ± 2.21"}, {"measurement": "SUVmax", "setting": "[1]; colon, 72 h p.i.", "result": "13.57 ± 5.00"}, {"measurement": "SUVmax", "setting": "[1]; kidneys, 1 h p.i.", "result": "21.15 ± 12.31"}, {"measurement": "SUVmax", "setting": "[1]; kidneys, 72 h p.i.", "result": "7.43 ± 1.56"}, {"measurement": "Tissue-to-background ratio (TiBR)", "setting": "[1]; salivary glands, kidneys, and colon at 72 h p.i., SUVmax organ / SUVmean gluteal muscle", "result": "≥ 50"}, {"measurement": "SUVmax", "setting": "[1]; submandibular gland, 24 h p.i.", "result": "17.30 ± 4.69"}, {"measurement": "SUVmax", "setting": "[1]; submandibular gland, 72 h p.i.", "result": "6.29 ± 1.61"}, {"measurement": "Patients whose undetermined [^68Ga]Ga-PSMA-11 findings were confirmed", "setting": "prostate cancer lesions; 3 patients with undetermined findings in [^68Ga]Ga-PSMA-11 PET/CT", "result": "2 of 3"}, {"measurement": "Detectability of tumor lesions at late time points", "setting": "prostate cancer lesions; 48 h p.i. and 72 h p.i.", "result": "All tumor lesions were detectable"}, {"measurement": "Findings on [^89Zr]Zr-PSMA-617 PET/CT", "setting": "prostate cancer lesions; Pt. no 1, PSA 1.92 ng/ml", "result": "Local recurrence"}, {"measurement": "Findings on [^89Zr]Zr-PSMA-617 PET/CT", "setting": "prostate cancer lesions; Pt. no 2, PSA 1.75 ng/ml", "result": "3 × LNM (no right iliac LNM)"}, {"measurement": "Findings on [^89Zr]Zr-PSMA-617 PET/CT", "setting": "prostate cancer lesions; Pt. no 3, PSA 0.66 ng/ml", "result": "No suspicious findings"}, {"measurement": "Findings on [^89Zr]Zr-PSMA-617 PET/CT", "setting": "prostate cancer lesions; Pt. no 4, PSA 1.77 ng/ml", "result": "Peritoneal metastasis + 4 × LNM"}, {"measurement": "Findings on [^89Zr]Zr-PSMA-617 PET/CT", "setting": "prostate cancer lesions; Pt. no 5, PSA 0.63 ng/ml", "result": 1, "unit": "× LNM"}, {"measurement": "Findings on [^89Zr]Zr-PSMA-617 PET/CT", "setting": "prostate cancer lesions; Pt. no 6, PSA 0.43 ng/ml", "result": "Local recurrence (in seminal vesicle bed)"}, {"measurement": "Findings on [^89Zr]Zr-PSMA-617 PET/CT", "setting": "prostate cancer lesions; Pt. no 7, PSA 0.68 ng/ml", "result": "Local recurrence + 2 × LNM"}, {"measurement": "Total number of lesions suggestive for prostate cancer", "setting": "prostate cancer lesions; all 7 patients, range 1–5 per patient", "result": 14, "unit": "lesions"}, {"measurement": "Tumor lesions identified at 1 h p.i. (also visible in [^68Ga]Ga-PSMA-11 PET/CT)", "setting": "prostate cancer lesions; in 3 patients", "result": "Three"}, {"measurement": "Patients with at least one prostate cancer lesion detected", "setting": "prostate cancer lesions; of 7 patients with negative or undetermined [^68Ga]Ga-PSMA-11 PET/CT", "result": 6, "unit": "patients"}, {"measurement": "Peritoneal metastases among identified lesions", "setting": "prostate cancer lesions; of n = 14 lesions", "result": 1, "unit": "lesions"}, {"measurement": "Tumor lesions not visible at 1 h p.i. but delineated at later time points", "setting": "prostate cancer lesions; of n = 14 lesions", "result": 11, "unit": "lesions"}, {"measurement": "Local recurrences among identified lesions", "setting": "prostate cancer lesions; of n = 14 lesions, in 3 patients", "result": 3, "unit": "lesions"}, {"measurement": "Lymph node metastases among identified lesions", "setting": "prostate cancer lesions; of n = 14 lesions, in 4 patients", "result": 10, "unit": "lesions"}, {"measurement": "Tumor lesions first visible at 24 h p.i.", "setting": "prostate cancer lesions; [3]", "result": 9, "unit": "lesions"}, {"measurement": "Tumor lesions first visible at 48 h p.i.", "setting": "prostate cancer lesions; [3]", "result": 2, "unit": "lesions"}, {"measurement": "SUVmax of tumor lesion", "setting": "prostate cancer lesions; patient no. 1, focal uptake in the prostate bed (local recurrence), 48 h p.i.", "result": 3.68}, {"measurement": "SUVmax of tumor lesion", "setting": "prostate cancer lesions; patient no. 4, peritoneal lesion (peritoneal metastasis), 48 h p.i.", "result": 2.87}, {"measurement": "SUVmax of tumor lesion", "setting": "prostate cancer lesions; patient no. 6, local recurrence in left seminal vesicle bed, 1 h p.i.", "result": 7.04}, {"measurement": "SUVmax of tumor lesion", "setting": "prostate cancer lesions; patient no. 6, local recurrence in left seminal vesicle bed, 24 h p.i.", "result": 21.27}, {"measurement": "SUVmax of tumor lesion", "setting": "prostate cancer lesions; patient no. 6, local recurrence in left seminal vesicle bed, 48 h p.i.", "result": 21.09}, {"measurement": "SUVmax of tumor lesion", "setting": "prostate cancer lesions; patient no. 6, local recurrence in left seminal vesicle bed, 72 h p.i.", "result": 19.19}, {"measurement": "SUVmax of tumor lesion", "setting": "prostate cancer lesions; patient no. 7, pelvic lymph node metastasis, 48 h p.i.", "result": 8.06}, {"measurement": "Side effects / adverse events", "setting": "[2]", "result": "not associated with any side effects; also recorded: no other side effects were observed"}]}]}
